Data published in patent US20120129928A1, “Chlorine-Free Liquid Microbicide Treatment” (University of Georgia Research Foundation, Inc., priority 2010, published 2012).
Read-outs that look alike come from different tables or passages of the source.

Experiments:
L. monocytogenes = type: cell-based, Listeria monocytogenes; details: 21° C.
[1] = tested on: spores of Bacillus anthracis Sterne; type: cell-based, Bacillus anthracis Sterne (34F2)
S. typhimurium DT 104 = type: cell-based, Salmonella typhimurium DT104; details: water, 21° C.
various yeast species = test: Effect of levulinic acids plus SDS at 21° C. on various yeast species; type: cell-based; details: for Yeast counts at min: 1: 1 min; for Yeast counts at min: 2: 2 min; for Yeast counts at min: 5: 5 min; for Yeast counts at min: 10: 10 min; for Yeast counts at min: 20: 20 min; for Yeast counts at min: 30: 30 min; for Yeast counts at min: 60: 60 min
S. enteritidis = test: Reduction of S. enteritidis in water treated with organic acids and SDS; type: cell-based, Salmonella enteritidis; details: water; for S. enteritidis counts: 21° C.; for Salmonella reduction: contact for 30 minutes
[2] = 0 min, listed as 0.5% levulinic acid
[3] = 0 min, listed as 1.0% levulinic acid
[4] = 0 min, listed as 2.0% levulinic acid
[5] = 2 min, listed as 0.5% levulinic acid
[6] = 2 min, listed as 1.0% levulinic acid
[7] = 2 min, listed as 2.0% levulinic acid
[8] = 5 min, listed as 0.5% levulinic acid
[9] = 5 min, listed as 1.0% levulinic acid
[10] = 5 min, listed as 2.0% levulinic acid
[11] = 10 min, listed as 0.5% levulinic acid
[12] = 10 min, listed as 1.0% levulinic acid
[13] = 10 min, listed as 2.0% levulinic acid
[14] = 20 min, listed as 0.5% levulinic acid
[15] = 20 min, listed as 1.0% levulinic acid
[16] = 20 min, listed as 2.0% levulinic acid
[17] = 30 min, listed as 0.5% levulinic acid
[18] = 30 min, listed as 1.0% levulinic acid
[19] = 30 min, listed as 2.0% levulinic acid

CC(=O)CCC(=O)O [levulinic acid]
L. monocytogenes counts (L. monocytogenes; 0 min): 6.9 ± 0.1 log CFU/ml | L. monocytogenes counts (L. monocytogenes; [2]): 6.7 ± 0.2 log CFU/ml | L. monocytogenes counts (L. monocytogenes; [3]): 6.8 ± 0.3 log CFU/ml | L. monocytogenes counts (L. monocytogenes; [4]): 6.8 ± 0.3 log CFU/ml | L. monocytogenes counts (L. monocytogenes; 2 min): 6.9 ± 0.2 log CFU/ml | L. monocytogenes counts (L. monocytogenes; [5]): 6.7 ± 0.1 log CFU/ml | L. monocytogenes counts (L. monocytogenes; [6]): 6.7 ± 0.2 log CFU/ml | L. monocytogenes counts (L. monocytogenes; [7]): 6.8 ± 0.2 log CFU/ml | L. monocytogenes counts (L. monocytogenes; 5 min): 6.9 ± 0.3 log CFU/ml | L. monocytogenes counts (L. monocytogenes; [8]): 6.8 ± 0.3 log CFU/ml | L. monocytogenes counts (L. monocytogenes; [9]): 6.6 ± 0.3 log CFU/ml | L. monocytogenes counts (L. monocytogenes; [10]): 6.9 ± 0.2 log CFU/ml | L. monocytogenes counts (L. monocytogenes; 10 min): 6.9 ± 0.1 log CFU/ml | L. monocytogenes counts (L. monocytogenes; [11]): 6.9 ± 0.2 log CFU/ml | L. monocytogenes counts (L. monocytogenes; [12]): 6.6 ± 0.3 log CFU/ml | L. monocytogenes counts (L. monocytogenes; [13]): 6.7 ± 0.2 log CFU/ml | L. monocytogenes counts (L. monocytogenes; 20 min): 6.9 ± 0.3 log CFU/ml | L. monocytogenes counts (L. monocytogenes; [14]): 6.7 ± 0.2 log CFU/ml | L. monocytogenes counts (L. monocytogenes; [15]): 6.6 ± 0.0 log CFU/ml | L. monocytogenes counts (L. monocytogenes; [16]): 6.9 ± 0.2 log CFU/ml | L. monocytogenes counts (L. monocytogenes; 30 min): 6.8 ± 0.3 log CFU/ml | L. monocytogenes counts (L. monocytogenes; [17]): 6.8 ± 0.2 log CFU/ml | L. monocytogenes counts (L. monocytogenes; [18]): 6.6 ± 0.3 log CFU/ml | L. monocytogenes counts (L. monocytogenes; [19]): 6.8 ± 0.2 log CFU/ml | CFU % recovery (as compared to control flask F) ([1]; Experiment A3, 10 min): 81% | CFU % recovery (as compared to control flask F) ([1]; Experiment A3, 45 min): 55% | CFU % recovery (as compared to control flask F) ([1]; Experiment A3, 90 min): 64% | CFU % recovery (as compared to control flask F) ([1]; Experiment A4 absent heat, RT, 0 min): 89% | CFU % recovery (as compared to control flask F) ([1]; Experiment A4 absent heat, RT, 1 h): 54% | CFU % recovery (as compared to control flask F) ([1]; Experiment A4 absent heat, RT, 2 h): 27% | CFU % recovery (as compared to control flask F) ([1]; Experiment A4 absent heat, RT, 3 h): 30% | CFU % recovery (as compared to control flask F) ([1]; Experiment A4 absent heat, RT, 4 h): 15% | CFU % recovery (as compared to control flask F) ([1]; Experiment A4 with heat, 65° C., 0 min): 70% | CFU % recovery (as compared to control flask F) ([1]; Experiment A4 with heat, 65° C., 1 h): 78% | CFU % recovery (as compared to control flask F) ([1]; Experiment A4 with heat, 65° C., 2 h): 45% | CFU % recovery (as compared to control flask F) ([1]; Experiment A4 with heat, 65° C., 3 h): 33% | CFU % recovery (as compared to control flask F) ([1]; Experiment A4 with heat, 65° C., 4 h): 46% | CFU % recovery (as compared to control flask F) ([1]; Experiment A5 absent heat, RT, 1 h): 80% | CFU % recovery (as compared to control flask F) ([1]; Experiment A5 absent heat, RT, 2 h): 46% | CFU % recovery (as compared to control flask F) ([1]; Experiment A5 absent heat, RT, 3 h): 67% | CFU % recovery (as compared to control flask F) ([1]; Experiment A5 absent heat, RT, 4 h): 37% | CFU % recovery (as compared to control flask F) ([1]; Experiment A5 with heat, 65° C., 0 min): 75% | CFU % recovery (as compared to control flask F) ([1]; Experiment A5 with heat, 65° C., 1 h): 58% | CFU % recovery (as compared to control flask F) ([1]; Experiment A5 with heat, 65° C., 2 h): 34% | CFU % recovery (as compared to control flask F) ([1]; Experiment A5 with heat, 65° C., 3 h): 34% | CFU % recovery (as compared to control flask F) ([1]; Experiment A5 with heat, 65° C., 4 h): 14% | S. typhimurium DT 104 counts (S. typhimurium DT 104; 0 min): 6.8 log CFU/ml | S. typhimurium DT 104 counts (S. typhimurium DT 104; 1 min): 6.7 log CFU/ml | S. typhimurium DT 104 counts (S. typhimurium DT 104; 2 min): 6.6 log CFU/ml | S. typhimurium DT 104 counts (S. typhimurium DT 104; 5 min): 6.5 log CFU/ml | S. typhimurium DT 104 counts (S. typhimurium DT 104; 10 min): 6.7 log CFU/ml | S. typhimurium DT 104 counts (S. typhimurium DT 104; 20 min): 6.6 log CFU/ml | S. typhimurium DT 104 counts (S. typhimurium DT 104; 30 min): 6.4 log CFU/ml | S. typhimurium DT 104 counts (S. typhimurium DT 104; 60 min): 5.9 log CFU/ml | Yeast counts at min: 1 (various yeast species; Debaryomyces hansenii): 4.8 log CFU/ml | Yeast counts at min: 2 (various yeast species; Debaryomyces hansenii): 4.9 log CFU/ml | Yeast counts at min: 5 (various yeast species; Debaryomyces hansenii): 4.6 log CFU/ml | Yeast counts at min: 10 (various yeast species; Debaryomyces hansenii): 4.4 log CFU/ml | Yeast counts at min: 20 (various yeast species; Debaryomyces hansenii): 4.7 log CFU/ml | Yeast counts at min: 30 (various yeast species; Debaryomyces hansenii): 3.0 log CFU/ml | Yeast counts at min: 60 (various yeast species; Debaryomyces hansenii): 1.3 log CFU/ml | Yeast counts at min: 1 (various yeast species; Geotrichum candidum): 4.4 log CFU/ml | Yeast counts at min: 2 (various yeast species; Geotrichum candidum): 4.4 log CFU/ml | Yeast counts at min: 5 (various yeast species; Geotrichum candidum): 4.3 log CFU/ml | Yeast counts at min: 10 (various yeast species; Geotrichum candidum): 4.1 log CFU/ml | Yeast counts at min: 20 (various yeast species; Geotrichum candidum): 3.8 log CFU/ml | Yeast counts at min: 30 (various yeast species; Geotrichum candidum): 3.4 log CFU/ml | Yeast counts at min: 60 (various yeast species; Geotrichum candidum): 2.0 log CFU/ml | Yeast counts at min: 1 (various yeast species; Saccharomyces cerevisiae): 5.3 log CFU/ml | Yeast counts at min: 2 (various yeast species; Saccharomyces cerevisiae): 5.5 log CFU/ml | Yeast counts at min: 5 (various yeast species; Saccharomyces cerevisiae): 5.4 log CFU/ml | Yeast counts at min: 10 (various yeast species; Saccharomyces cerevisiae): 5.3 log CFU/ml | Yeast counts at min: 20 (various yeast species; Saccharomyces cerevisiae): 5.3 log CFU/ml | Yeast counts at min: 30 (various yeast species; Saccharomyces cerevisiae): 5.5 log CFU/ml | Yeast counts at min: 60 (various yeast species; Saccharomyces cerevisiae): 5.0 log CFU/ml | S. enteritidis counts (S. enteritidis; 0 min, listed as 0.1% levulinic acid): 7.1 log CFU/ml | S. enteritidis counts (S. enteritidis; [2]): 7.1 log CFU/ml | S. enteritidis counts (S. enteritidis; [3]): 6.9 log CFU/ml | S. enteritidis counts (S. enteritidis; [4]): 6.7 log CFU/ml | S. enteritidis counts (S. enteritidis; 0 min, listed as 3.0% levulinic acid): 6.6 log CFU/ml | S. enteritidis counts (S. enteritidis; 2 min, listed as 0.1% levulinic acid): 7.1 log CFU/ml | S. enteritidis counts (S. enteritidis; [5]): 6.8 log CFU/ml | S. enteritidis counts (S. enteritidis; [6]): 6.7 log CFU/ml | S. enteritidis counts (S. enteritidis; [7]): 6.7 log CFU/ml | S. enteritidis counts (S. enteritidis; 2 min, listed as 3.0% levulinic acid): 6.8 log CFU/ml | S. enteritidis counts (S. enteritidis; 5 min, listed as 0.1% levulinic acid): 6.9 log CFU/ml | S. enteritidis counts (S. enteritidis; [8]): 6.9 log CFU/ml | S. enteritidis counts (S. enteritidis; [9]): 6.8 log CFU/ml | S. enteritidis counts (S. enteritidis; [10]): 6.7 log CFU/ml | S. enteritidis counts (S. enteritidis; 5 min, listed as 3.0% levulinic acid): 6.5 log CFU/ml | S. enteritidis counts (S. enteritidis; 10 min, listed as 0.1% levulinic acid): 7.0 log CFU/ml | S. enteritidis counts (S. enteritidis; [11]): 6.9 log CFU/ml | S. enteritidis counts (S. enteritidis; [12]): 6.9 log CFU/ml | S. enteritidis counts (S. enteritidis; [13]): 6.8 log CFU/ml | S. enteritidis counts (S. enteritidis; 10 min, listed as 3.0% levulinic acid): 6.2 log CFU/ml | S. enteritidis counts (S. enteritidis; 20 min, listed as 0.1% levulinic acid): 6.9 log CFU/ml | S. enteritidis counts (S. enteritidis; [14]): 6.6 log CFU/ml | S. enteritidis counts (S. enteritidis; [15]): 6.9 log CFU/ml | S. enteritidis counts (S. enteritidis; [16]): 6.5 log CFU/ml | S. enteritidis counts (S. enteritidis; 20 min, listed as 3.0% levulinic acid): 5.1 log CFU/ml | S. enteritidis counts (S. enteritidis; 30 min, listed as 0.1% levulinic acid): 6.9 log CFU/ml | S. enteritidis counts (S. enteritidis; [17]): 6.7 log CFU/ml | S. enteritidis counts (S. enteritidis; [18]): 6.7 log CFU/ml | S. enteritidis counts (S. enteritidis; [19]): 6.0 log CFU/ml | S. enteritidis counts (S. enteritidis; 30 min, listed as 3.0% levulinic acid): 3.8 log CFU/ml | Salmonella reduction (S. enteritidis; listed as 0.1 to 2.0% by weight levulinic acid): ~1 log CFU/ml | Salmonella reduction (S. enteritidis; listed as 1% by weight levulinic acid): ≤ 1 log CFU/ml | Salmonella reduction (S. enteritidis; listed as 3% levulinic acid): 3.4 log CFU/ml | Salmonella reduction (S. enteritidis; listed as 3.0% levulinic acid): 3.4 log CFU/ml
